The text below walks through data of patent publication US20050069907A1, “Methods for using double-mutant RNA polymerases with reduced discrimination between non-canonical and canonical nucleoside triphosphates” (priority 2002, published 2005).

Marks after values point to notes of the source that are not given here.

What all share (format): biochemical
Experiment [1] relates to supercoiled pT75. Put plainly: rNTP/dNTP selectivity assay: labeled rNTP vs dNTP incorporation with 4 unlabeled rNTPs. The procedure:
(§1) Transcription reactions: Transcription reactions were carried out in 40 mM Tris-Cl pH 8.0, 15 mM MgCl2, and 5 mM DTT or 20 mM Manganese Citrate pH 8.0, 5 mM DTT at 37° C. Template, polymerase, and NTP concentrations were as indicated in the legends to the figures and tables. Relative activity determinations were made by taking 4 μl aliquots of reactions at 5, 10, and 20 minute time points and spotting on to DE81 filter paper. Unincorporated nucleotides were separated from incorporated nucleotides by washing the filter paper with 0.5 M KH2PO4 pH 7.0 and retained radioactive nucleotide was quantitated with a Molecular Dynamics phosphorimager. To evaluate rNTP/dNTP selectivity, reactions were run with 4 rNTPs and pT75 as template and α-P^32 rNTPs or α-P^32 dNTPs were used to label the transcripts. The relative rate of incorporation of an rNTP vs. its cognate dNTP was determined from the relative percentages of labeled rNTP vs. dNTP incorporated into DE81 retainable RNA at 5, 10, and 20 minute time points. Apparent miscoding frequencies were determined similarly, though in this instance the template was a single-stranded homopolymer and the reaction contained the complementary unlabeled rNTP, and complementary α-P^32 rNTP or one of the 3 non-complementary α-P^32 rNTPs. The relative percentages of labeled complementary vs. non-complementary rNTPs incorporated at 5, 10 and 20 minute time points gave an apparent miscoding rate. The rNTP/dNTP selectivity assay was used to test the following T7 RNAP mutants for effects on substrate discrimination: D537S, D537E, S539A, R5S1S, D552S, R627S, K631S, L637A, Y639S, Y639F, Y639A, G640A, F644A, G645A, Q649S, […], H811S, H811A, D812A, D812E, D812S, D812N, D879E+ΔF882+ΔA883, D879E+A881T+ΔA883, D879E+F884+A885, D879E+F882Y, D879E+ΔA883, D879E+F882W, D879E.
Relative selectivity of the mutant and W.T. polymerases for dNTPs and rNTPs: FIGS. 1-3 present a qualitative analysis of the structure of the transcripts produced by the W.T. and Y639F polymerases with various combinations of NTPs. […] To obtain a quantitative measure of the relative selectivity of the W.T. and mutant polymerases for dNTPs vs. rNTPs under conditions where transcript structure was not a complicating factor, reactions were carried out in which all 4 rNTPs were present but rNTPs or dNTPs were used to radiolabel the transcripts (see Table I).
Under these conditions the unlabeled rNTPs were present in vast excess relative to the labeling NTPs so labeling dNTPs are almost always incorporated adjacent to rNTPs and into transcripts of nearly uniform rNMP structure. […] This assay was used to screen our collection of T7 RNAP active site mutants for increased dNTP utilization. In this screen dATP incorporation in transcription reactions was examined with all of these mutants using supercoiled pT75 as the template, 4 cold rNTPs, and P32-rATP or P32-dATP to label. […] It has been reported that use of Mn^2+ instead of Mg^2+ decreases substrate discrimination and increases miscoding for a number of polymerases (Tabor and Richardson, 1989; Nivogi and Feldman, 1981). Therefore, the rNTP/dNTP selectivity of the mutant and W.T. enzymes were examined in Mn^2+-citrate buffer (Tabor and Richardson, 1989).

Experiment [2] deals with poly(dC). Put plainly: Apparent miscoding on homopolymeric template poly(dC). As to conditions: poly(dC). The procedure: as §1
(§2) An increase in miscoding would be reflected in an increase in the rate of incorporation of the non-complementary NTP into RNA.
(§3) Numbers are averages from 2 experiments and reflect the ratio of the percentages of labeled rNTPs incorporated into RNA in reactions in which unlabeled complementary rNTPs were in great excess (0.5 mM) to labeled complementary or non-complementary rNTPs. Templates were at 0.1 mg/ml. Polymerases were at 10^−8 M in Mg^2+ buffer and 10^−7 M in Mn^2+ buffer.
(§4) *The upper number refers to results obtained in Mg^2+ buffer, the lower number to results in Mn^2+ buffer. n.d.: G640A, Y639A, Y639S were poorly active in Mn^2+ buffer, or on poly(dT) under all conditions.

Experiment [3] deals with poly(dT). Put plainly: Apparent miscoding on homopolymeric template poly(dT). The protocol: as §1, §2, §3, §4
[4] abbreviates: Mg^2+ buffer, range of 2 experiments.

Turning to “W.T.: wild-type T7 RNA polymerase [reference compound]”, in experiment [1] (Mg^2+ buffer), the “Relative selectivity rCTP/dCTP” value is on record as 110-150, the “Relative selectivity rGTP/dGTP” value is on record as 51-67 and the “Relative selectivity rUTP/dTTP” value was 22-25. Besides, the “Relative selectivity rATP/dATP” value in experiment [1] (setting [4]) is given as 72-83 (Mg)*. In experiment [1] (Mn^2+ buffer), the “Relative selectivity rATP/dATP” value is listed as 6-14 (Mn)*, the “Relative selectivity rCTP/dCTP” value is reported as 4.3-5.1, the “Relative selectivity rGTP/dGTP” value is on record as 4.4-6.3 and the “Relative selectivity rUTP/dTTP” value is 2.3-2.8. Also, in experiment [2] (Mg^2+ buffer), the “Relative rate of incorporation GTP/ATP” value came out at 233 and the “Relative rate of incorporation GTP/CTP” value turned out to be 400. For the same substance, in experiment [2] (Mn^2+ buffer), the “Relative rate of incorporation GTP/ATP” value stood at 9.3, the “Relative rate of incorporation GTP/CTP” value came to 32 and the “Relative rate of incorporation GTP/UTP” value was 53 (Mn2+)*. In experiment [3], the “Increase in miscoding rates in Mn^2+ buffer, on average” value was around 5 fold. In experiment [3] (Mg^2+ buffer), the “Relative rate of incorporation ATP/CTP” value is recorded as above 340, the “Relative rate of incorporation ATP/GTP” value is listed as 170 and the “Relative rate of incorporation ATP/UTP” value was found to be 121. In experiment [3] (Mn^2+ buffer), the “Relative rate of incorporation ATP/CTP” value was 77, the “Relative rate of incorporation ATP/GTP” value turned out to be 50 and the “Relative rate of incorporation ATP/UTP” value was 21.
As to “Y639F: T7 RNAP with wild-type tyrosine at position 639 substituted by phenylalanine”, in experiment [1], the “Reduction in selectivity for rNTPs over dNTPs relative to W.T., on average” value is on record as around 20 fold. Also, in experiment [1] (Mg^2+ buffer), the “Relative selectivity rCTP/dCTP” value was 2.4-2.5, the “Relative selectivity rGTP/dGTP” value was “.93-1.6” and the “Relative selectivity rUTP/dTTP” value is 1.7-1.9. Further, the “Relative selectivity rATP/dATP” value in experiment [1] (setting [4]) is listed as 8.5-10 (Mg)*. In experiment [1] (Mn^2+ buffer), the “Relative selectivity rATP/dATP” value is “.9-1.0 (Mn)*”, the “Relative selectivity rCTP/dCTP” value is on record as “.55-.80”, the “Relative selectivity rGTP/dGTP” value was “.98-.99” and the “Relative selectivity rUTP/dTTP” value is given as “.48-.76”. For the same substance, in experiment [2] (Mg^2+ buffer), the “Relative rate of incorporation GTP/ATP” value is 338, the “Relative rate of incorporation GTP/CTP” value is 550 and the “Relative rate of incorporation GTP/UTP” value is on record as above 1760. In experiment [2] (Mn^2+ buffer), the “Relative rate of incorporation GTP/ATP” value is 8, the “Relative rate of incorporation GTP/CTP” value is given as 40 and the “Relative rate of incorporation GTP/UTP” value was determined as 55. In experiment [3], the “Increase in miscoding rates in Mn^2+ buffer, on average” value is listed as around 5 fold and the “Increase, relative to W.T., in ratio of rates of rGTP to rATP incorporation” value is on record as around 2 fold. Also, in experiment [3] (Mg^2+ buffer), the “Relative rate of incorporation ATP/CTP” value is on record as above 94, the “Relative rate of incorporation ATP/GTP” value came out at 94 and the “Relative rate of incorporation ATP/UTP” value is on record as 94. Besides, in experiment [3] (Mn^2+ buffer), the “Relative rate of incorporation ATP/CTP” value was 60, the “Relative rate of incorporation ATP/GTP” value amounted to 27 and the “Relative rate of incorporation ATP/UTP” value worked out at 20.
